Tests used:
CXCR1 = biological target: T1, CXCR1 (Homo sapiens, UniProt P25024); test: IL-8 induced PMN chemotaxis (CXCR1); assay type: cell-based; details: for inhibition at 0.01 µM: compound c = 10^−8 M, IL-8 induced human PMN chemotaxis; for IL-8 inhibitory activity: result in words, IL-8 induced chemotaxis
T1 construct: endogenous in cells; host or cells: human polymorphonucleate leukocytes (PMNs) isolated from blood of healthy volunteers
T1 sequence (P25024 1-350): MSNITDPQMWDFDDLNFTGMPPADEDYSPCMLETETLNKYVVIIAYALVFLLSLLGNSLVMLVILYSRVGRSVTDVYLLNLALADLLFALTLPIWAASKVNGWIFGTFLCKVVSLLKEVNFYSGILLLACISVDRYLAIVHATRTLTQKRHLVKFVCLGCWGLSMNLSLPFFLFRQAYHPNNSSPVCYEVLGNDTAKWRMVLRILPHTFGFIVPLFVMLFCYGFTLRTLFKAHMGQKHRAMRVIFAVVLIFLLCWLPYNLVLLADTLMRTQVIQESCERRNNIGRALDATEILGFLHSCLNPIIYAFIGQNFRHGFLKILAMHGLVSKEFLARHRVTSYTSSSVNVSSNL

CXCR2 = biological target: T2, CXCR2 (Homo sapiens, UniProt P25025); test: GRO-α induced PMN chemotaxis (CXCR2); assay type: cell-based; details: compound c = 10^−8 M
T2 construct: endogenous in cells; host or cells: human polymorphonucleate leukocytes (PMNs) isolated from blood of healthy volunteers
T2 sequence (P25025 1-360): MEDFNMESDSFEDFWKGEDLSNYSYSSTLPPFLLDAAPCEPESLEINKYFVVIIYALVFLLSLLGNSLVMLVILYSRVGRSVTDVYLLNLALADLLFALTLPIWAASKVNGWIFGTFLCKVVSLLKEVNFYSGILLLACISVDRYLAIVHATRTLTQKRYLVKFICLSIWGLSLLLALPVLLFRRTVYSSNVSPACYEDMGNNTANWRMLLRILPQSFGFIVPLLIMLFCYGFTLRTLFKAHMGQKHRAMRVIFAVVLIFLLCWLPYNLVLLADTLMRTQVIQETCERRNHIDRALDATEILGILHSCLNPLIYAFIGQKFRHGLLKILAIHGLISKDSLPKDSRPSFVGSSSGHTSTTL
Experimental: The compounds of the invention of formula I were evaluated in vitro for their ability to inhibit chemotaxis of polymorphonucleate leukocytes (hereinafter referred to as PMNs) and monocytes induced by the fractions of IL-8 and GRO-α. For this purpose, in order to isolate the PMNs from heparinized human blood, taken from healthy adult volunteers, mononucleates were removed by means of sedimentation on dextran (according to the procedure disclosed by W. J. Ming et al., J. Immunol., 138, 1469, 1987) and red blood cells by a hypotonic solution. The cell viability was calculated by exclusion with Trypan blue, whilst the ratio of the circulating polymorphonucleates was estimated on the cytocentrifugate after staining with Diff Quick.
During the chemotaxis assay (according to W. Falket et al., J. Immunol. Methods, 33, 239, 1980) PVP-free filters with a porosity of 5 μm and microchambers suitable for replication were used.
The compounds of the invention of formula (I) and (Ia) were evaluated at a concentration ranging between 10^−6 and 10^−10 M; for this purpose they were added, at the same concentration, both to the lower pores and the upper pores of the microchamber. Evaluation of the ability of the compounds of the invention of formula I to inhibit IL-8-induced chemotaxis of human monocytes was carried out according to the method disclosed by Van Damme J. et al. (Eur. J. Immunol., 19, 2367, 1989).
The biological activity of compounds showing high potency either as inhibitors of IL-8 induced PMN chemotaxis (CXCR1) or as dual inhibitors of IL-8 and GRO-α induced PMN chemotaxis (CXCR1/CXCR2) is reported in Table 1.

Structure (SMILES)	inhibition at 0.01 µM (CXCR1) [%]	inhibition at 0.01 µM (CXCR2) [%]	IL-8 inhibitory activity (CXCR1)
CCC(=O)c1cccc(CC(=O)O)c1Cl [Example 3, (2-chloro-3-propionylphenyl)acetic acid]	67 ± 14	27 ± 8	–
Cc1c(CC(=O)O)cccc1C(C)C [Example 2, (3-isopropyl-2-methylphenyl)acetic acid]	62 ± 8	5 ± 10	–
CC(=O)c1ccc(CC(N)=O)n1C [Example 19, (5-acetyl-1-methyl-1H-pyrrol-2-yl)acetamide]	54 ± 10	44 ± 9	–
O=C(O)Cc1cccc(C(=O)c2ccccc2)c1 [ketofenac, 2-[3-benzoylphenyl]acetic acid, reference compound]	–	–	do not exert any IL-8 inhibitory activity
CC(C)Cc1ccc(CC(=O)O)cc1 [ibufenac, 2-[4-isobutylphenyl]acetic acid, reference compound]	–	–	do not exert any IL-8 inhibitory activity
CC(=O)c1ccc(CC(=O)NS(C)(=O)=O)n1C [Example 41, (5-acetyl-1-methyl-1H-pyrrol-2-yl)acetyl methanesulfonamide]	50 ± 10	46 ± 14	–
Cc1cc(NS(=O)(=O)C(F)(F)F)ccc1CC(=O)NS(C)(=O)=O [Example 43, {2-methyl-4-[(trifluoromethanesulfonyl)amino]phenyl}acetyl methanesulfonamide]	60 ± 7	52 ± 5	–
CC(C)C(=O)c1ccc(CC(=O)O)n1C [Example 12, (5-isobutyryl-1-methyl-1H-pyrrol-2-yl)acetic acid]	58 ± 11	65 ± 11	–
Cc1cc(CC(C)C)ccc1CC(=O)NS(C)(=O)=O [Example 42, (4-isobutyl-2-methylphenyl)acetyl methanesulfonamide]	67 ± 14	0	–
Cc1cc(CC(C)C)ccc1CC(=O)O [Example 4, (4-isobutyl-2-methylphenyl)acetic acid]	60 ± 10	4 ± 8	–
CC(=O)c1ccc(CC(=O)O)n1C [Example 11, (5-acetyl-1-methyl-1H-pyrrol-2-yl)acetic acid]	60 ± 7	65 ± 5	–

From patent US8648110B2, “2-aryl-acetic acids, their derivatives and pharmaceutical compositions containing them” (Dompe Pha.R.Ma S.p.A., priority 2003, dated 2014)
